From patent US7923445B2, “Methods for treatment of diseases related to activated lymphocytes” (Immune Control, Inc., priority 2006, dated 2011)

Columns and labels:
TNF-α = assay: LPS-mediated cytokine production model, serum TNF-α; type: in vivo, CD1:ICR mice; settings: for TNFα inhibition in dose-response study: IP, up to a dose of 5 mg/kg, pre-dose 1 hr; for TNFα inhibition, IV versus IP administration: pre-dose time course, 10 mg/kg
Text: Bolus injection of lethal or sub-lethal doses of lipopolysaccharide (LPS; the major component of bacterial cell walls) results in a rapid and transient rise in serum cytokine levels (e.g. TNF-α) in mammals. This animal model was originally developed to mirror certain aspects of septic shock in humans; however, there is poor correlation between efficacy in LPS-rodent models and clinical efficacy. However, this model may be an effective first-line general inflammation model and could be useful in determining the anti-inflammatory potential of test compounds. A variety of clinically approved anti-inflammatory compounds, including glucocorticoids, NSAIDS and COX-2 inhibitors are extremely effective in this model. Compounds ICI-685 and ICI-735 were tested for their ability to inhibit LPS-stimulated TNF-α and IL-1β production.
Both ICI-685 and ICI-735 were formulated in water. For the time course study, both drugs were formulated at a concentration of 1 mg/ml and dosed 10 ml/kg to produce a dose of 10 mg/kg. For the dose-response study, drug was formulated at concentrations of 0.05, 0.2 and 0.5 mg/ml and dosed at a volume of 10 ml/kg to produce doses of 0.5, 2 and 5 mg/kg, respectively. Animals were dosed IV or IP.
CD1:ICR mice were obtained from Harlan (Indianapolis, Ind.) at 6 weeks of age. Animals were housed 5 per cage, kept on a 12 hr light dark cycle and fed food and water ad libitum. Animals were tested at 8-10 weeks of age.
Lipopolysaccharide (heat killed E. coli 0127:B5; Sigma Aldrich) was prepared in distilled water at a concentration of 0.025 mg/ml. LPS was dosed at a volume of 10 ml/kg (IP) to produce a final dose of 0.25 mg/kg (approximately 7.5 μg/mouse). Drugs were dosed prior to LPS administration as indicated elsewhere herein. Blood was collected by retro-orbital eye bleed 90 minutes after LPS administration. Serum was prepared from blood and TNF-α and IL-1β levels were measured by using the OPT-EIA mouse TNF-α and IL-1β ELISA kits (BD Biosciences) as per directions of the manufacturer.
The first study was designed to determine the optimal route of administration and the optimal pre-treatment time. Two pre-dose time course studies were conducted. The first (Study 1A) was conducted with 3 pre-dose time points (2, 6 and 18 hrs). The second was conducted at 0, 1 and 2 hr predose time points. For both studies, drug was dosed IP or IV.
Using data from the first study, a second study was conducted that was designed to measure dose-response activity of each compound. Compounds were tested at doses of 0, 2.0 and 5 mg/kg using the route and pre-treatment time that produced the best activity. […]
Using data from the first study, a second study was conducted that was designed to measure dose-response activity of each compound. Compounds were tested at doses of 0.5, 2.0 and 5 mg/kg using the route and pre-treatment time that produced the best activity.

[1] = system: Aspergillus fumigatus-based mouse asthma model; assay: Aspergillus fumigatus-based mouse asthma model, lung resistance; type: in vivo; settings: intraperitoneally at a dose of 20 mg/ml
Description: Compounds of the invention were also tested for efficiacy in an asthma model.
A cohort of mice were administered intraperitoneal injections of Aspergillus fumigatus on days 0, 14, 26, 27, and 28. Lung resistance was tested on day 29 immediately following a tracheotomy/methacholine procedure. Animals receiving dexamethasone were administered dexamethasone on days 26, 27 and 28. Animals receiving a compound of the invention were administered the compound just hours before the lung resistance test. As a control, all test compounds, as well as dexamethasone, were also administered to mice in the absence of an A. fumigatus insult.

[2] = system: mice sensitized with collagen injections; assay: Clinical arthritis score in mice sensitized with collagen injections; type: in vivo
Description: FIGS. 26-28 illustrate the effect of various compounds of the invention on the clinical arthritis score of mice treated with various compounds of the invention.
Additional testing of the effectiveness of compounds ICI-685, ICI-735 and ICI-847 at higher and lower concentrations were conducted, as illustrated in FIG. 29.

SMILES: NCCN1CCN(CCCCN2c3ccccc3Sc3ccc(C(F)(F)F)cc32)CC1 [ICI-953]
- TNFα inhibition in dose-response study (TNF-α): ineffective
- TNFα inhibition, IV versus IP administration (TNF-α): IP administration produced slightly better inhibition than IV administration

SMILES: FC(F)(F)c1ccc2c(c1)N(CCCC1CCNCC1)c1ccccc1S2 [ICI-824]
- TNFα inhibition in dose-response study (TNF-α): ineffective
- TNFα inhibition, IV versus IP administration (TNF-α): IP administration produced slightly better inhibition than IV administration

SMILES: CN(C)S(=O)(=O)c1ccc2c(c1)N(CCCN1CCN(CCN)CC1)c1ccccc1S2 [ICI-715]
- TNFα inhibition, IV versus IP administration (TNF-α): IV administration of ICI-715 produced slightly better inhibition than IV administration

SMILES: NCC(=O)NCCN1CCN(CCCN2c3ccccc3Sc3ccc(C(F)(F)F)cc32)CC1 [ICI-735]
- decreasing lung resistance, compared with dexamethasone [1]: at least as effective as dexamethasone

SMILES: NCC(=O)NCCN1CCN(CCCCN2c3ccccc3Sc3ccc(C(F)(F)F)cc32)CC1 [ICI-954]
- TNFα inhibition in dose-response study (TNF-α): ineffective
- TNFα inhibition, IV versus IP administration (TNF-α): IP administration produced slightly better inhibition than IV administration

SMILES: NCCCN1CCC(CCCN2c3ccccc3Sc3ccc(C(F)(F)F)cc32)CC1 [ICI-847]
- clinical arthritis score, compared with dexamethasone ([2]; 30 mg/kg): as effective for the length of the study as is dexamethasone
- clinical arthritis score, compared with dexamethasone ([2]; orally at 10 mg/kg daily, for about 21 days): as effective as dexamethasone
- decreasing lung resistance, compared with dexamethasone [1]: at least as effective as dexamethasone
